Read-outs that look alike come from different tables or passages of the source.
What was measured:
cancer cell lines = assay: Cancer cell proliferation activity (CellTiterGlo, 72 h); type: cell-based; settings: for IC50: 72 h, read-out: IC50 cell proliferation
Outline: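 Cells seeded overnight at 37 °C, then dosed with compound at 0.1% final DMSO and incubated 72 h at 37 °C (5% or 10% CO2 by medium).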

[1] = target: human cytidine deaminase (CDA) (Homo sapiens, UniProt P32320); assay: Metabolism by human cytidine deaminase (CDA), substrate absorbance at 290 nm
Sequence of human cytidine deaminase (CDA) (P32320 whole entry): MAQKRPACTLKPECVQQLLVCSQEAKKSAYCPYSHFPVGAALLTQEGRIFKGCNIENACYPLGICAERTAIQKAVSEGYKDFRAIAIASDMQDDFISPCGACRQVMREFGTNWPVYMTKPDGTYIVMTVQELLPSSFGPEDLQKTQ

Nc1nc(=O)n([C@H]2C[C@H](O)[C@](CO)(CF)O2)cc1F [Cpd. No. 197, 4-amino-5-fluoro-1-((2R,4S,5R)-5-(fluoromethyl)-4-hydroxy-5-(hydroxymethyl)tetrahydrofuran-2-yl)pyrimidin-2(1H)-one]
IC50 (cancer cell lines; 5637 (bladder)): 4 nM
IC50 (cancer cell lines; CLS439 (bladder)): > 50000 nM
IC50 (cancer cell lines; HS729 (muscle)): > 50000 nM
IC50 (cancer cell lines; J82 (bladder)): 216 nM
IC50 (cancer cell lines; JAR (placenta)): > 50000 nM
IC50 (cancer cell lines; MT3 (breast)): 16 nM
IC50 (cancer cell lines; PANCI (pancreas)): > 50000 nM
IC50 (cancer cell lines; PC3 (prostate)): > 50000 nM
IC50 (cancer cell lines; RD (muscle)): 66 nM
IC50 (cancer cell lines; T24 (bladder)): 98 nM
IC50 (cancer cell lines; Homo sapiens, 22Rv1, 72 h, 22RV1 (prostate)): 84 nM
IC50 (cancer cell lines; Homo sapiens, 786-0, 72 h, 786O (kidney)): > 50000 nM
IC50 (cancer cell lines; Homo sapiens, A204, 72 h, A204 (muscle)): 716 nM
IC50 (cancer cell lines; Homo sapiens, A549, 72 h, A549 (lung)): 75 nM
IC50 (cancer cell lines; Homo sapiens, A673, 72 h, A673 (bone)): 110 nM
IC50 (cancer cell lines; Homo sapiens, A2780, 72 h, A2780 (ovary)): 213 nM
IC50 (cancer cell lines; Homo sapiens, A-375, 72 h, A375 (skin)): 183 nM
IC50 (cancer cell lines; Homo sapiens, A-431, 72 h, A431 (skin)): 2 nM
IC50 (cancer cell lines; Homo sapiens, ACHN, ACHN (kidney)): 12 nM
IC50 (cancer cell lines; Homo sapiens, ASPC1, 72 h, ASPC1 (pancreas)): 11 nM
IC50 (cancer cell lines; Homo sapiens, BT-20, 72 h, BT20 (breast)): > 50000 nM
IC50 (cancer cell lines; Homo sapiens, BXPC-3, 72 h, BXPC3 (pancreas)): 0.4 nM
IC50 (cancer cell lines; Homo sapiens, C-33-A, C33A (endometrial)): 47 nM
IC50 (cancer cell lines; Homo sapiens, CAKI-1, 72 h, CAKI1 (kidney)): > 50000 nM
IC50 (cancer cell lines; Homo sapiens, COLO 205, 72 h, COLO205 (colon)): 18 nM
IC50 (cancer cell lines; Homo sapiens, COLO-678, 72 h, COLO678 (colon)): > 50000 nM
IC50 (cancer cell lines; Homo sapiens, Ca-Ski, CASKI (endometrial)): > 50000 nM
IC50 (cancer cell lines; Homo sapiens, Caco-2, 72 h, CACO2 (colon)): > 50000 nM
IC50 (cancer cell lines; Homo sapiens, Calu-6, 72 h, CALU6 (lung)): 76 nM
IC50 (cancer cell lines; Homo sapiens, DLD-1, 72 h, DLD1 (colon)): 8970 nM
IC50 (cancer cell lines; Homo sapiens, DU-145, 72 h, DU145 (prostate)): 425 nM
IC50 (cancer cell lines; Homo sapiens, EFO-21, 72 h, EFO21 (ovary)): > 50000 nM
IC50 (cancer cell lines; Homo sapiens, EJ-28, 72 h, EJ28 (bladder)): 66 nM
IC50 (cancer cell lines; Homo sapiens, Granta-519, 72 h, GRANTA-519 (hematological)): 10 nM
IC50 (cancer cell lines; Homo sapiens, HCT-15, 72 h, HCT15 (colon)): 1380 nM
IC50 (cancer cell lines; Homo sapiens, HCT-116, 72 h, HCT116 (colon)): 1110 nM
IC50 (cancer cell lines; Homo sapiens, HEK293, 72 h, HEK293 (kidney)): > 50000 nM
IC50 (cancer cell lines; Homo sapiens, HL-60, 72 h, HL-60 (hematological)): 247 nM
IC50 (cancer cell lines; Homo sapiens, HT-29, 72 h, HT29 (colon)): 60 nM
IC50 (cancer cell lines; Homo sapiens, HT-1080, 72 h, HT1080 (connective tissue)): 46 nM
IC50 (cancer cell lines; Homo sapiens, HeLa, HELA (endometrial)): > 50000 nM
IC50 (cancer cell lines; Homo sapiens, HepG2, 72 h, HEPG2 (liver)): 89 nM
IC50 (cancer cell lines; Homo sapiens, Hs-578T, HS578T (breast)): > 50000 nM
IC50 (cancer cell lines; Homo sapiens, IGROV-1, 72 h, IGROV1 (ovary)): 1590 nM
IC50 (cancer cell lines; Homo sapiens, IMR-90, 72 h, IMR90 (lung)): > 50000 nM
IC50 (cancer cell lines; Homo sapiens, JEG-3, 72 h, JEG3 (placenta)): 37 nM
IC50 (cancer cell lines; Homo sapiens, JIMT-1, 72 h, JIMT1 (breast)): > 50000 nM
IC50 (cancer cell lines; Homo sapiens, K562, 72 h, K-562 (hematological)): > 50000 nM
IC50 (cancer cell lines; Homo sapiens, Kasumi 1, 72 h, KASUMI-1 (hematological)): 76 nM
IC50 (cancer cell lines; Homo sapiens, L-363, 72 h, L-363 (hematological)): > 50000 nM
IC50 (cancer cell lines; Homo sapiens, LoVo, LOVO (colon)): 6 nM
IC50 (cancer cell lines; Homo sapiens, MCF7, 72 h, MCF7 (breast)): 181 nM
IC50 (cancer cell lines; Homo sapiens, MDA-MB-231, 72 h, MDAMB231 (breast)): > 50000 nM
IC50 (cancer cell lines; Homo sapiens, MDA-MB-435, 72 h, MDAMB435 (skin)): 924 nM
IC50 (cancer cell lines; Homo sapiens, MDA-MB-436, 72 h, MDAMB436 (breast)): 41 nM
IC50 (cancer cell lines; Homo sapiens, MDA-MB-468, 72 h, MDAMB468 (breast)): > 50000 nM
IC50 (cancer cell lines; Homo sapiens, MG-63, 72 h, MG63 (bone)): 361 nM
IC50 (cancer cell lines; Homo sapiens, MHH-ES-1, 72 h, MHHES1 (bone)): 2560 nM
IC50 (cancer cell lines; Homo sapiens, MIA PaCa-2, 72 h, MIAPACA2 (pancreas)): 904 nM
IC50 (cancer cell lines; Homo sapiens, MINO, MINO (hematological)): 2 nM
IC50 (cancer cell lines; Homo sapiens, MV4-11, 72 h, MV4-11 (hematological)): 44 nM
IC50 (cancer cell lines; Homo sapiens, NCI-H23, 72 h, NCI-H23 (lung)): 334 nM
IC50 (cancer cell lines; Homo sapiens, NCI-H82, 72 h, NCIH82 (lung)): 87 nM
IC50 (cancer cell lines; Homo sapiens, NCI-H292, 72 h, NCIH292 (lung)): 114 nM
IC50 (cancer cell lines; Homo sapiens, NCI-H460, 72 h, NCIH460 (lung)): 61 nM
IC50 (cancer cell lines; Homo sapiens, OVCAR-3, 72 h, OVCAR3 (ovary)): > 50000 nM
IC50 (cancer cell lines; Homo sapiens, OVCAR-4, 72 h, OVCAR4 (ovary)): > 50000 nM
IC50 (cancer cell lines; Homo sapiens, PLC-PRF-5, 72 h, PLCPRF5 (liver)): > 50000 nM
IC50 (cancer cell lines; Homo sapiens, Panc1005, 72 h, PANC1005 (pancreas)): > 50000 nM
IC50 (cancer cell lines; Homo sapiens, Ramos, RAMOS (hematological)): 292 nM
IC50 (cancer cell lines; Homo sapiens, SAOS-2, 72 h, SAOS2 (bone)): 6 nM
IC50 (cancer cell lines; Homo sapiens, SF-268, 72 h, SF268 (brain)): 187 nM
IC50 (cancer cell lines; Homo sapiens, SF-295, 72 h, SF295 (brain)): > 50000 nM
IC50 (cancer cell lines; Homo sapiens, SK-BR-3, 72 h, SKBR3 (breast)): 5 nM
IC50 (cancer cell lines; Homo sapiens, SK-HEP1, 72 h, SKHEP1 (liver)): 1320 nM
IC50 (cancer cell lines; Homo sapiens, SK-LMS-1, 72 h, SKLMS1 (uterus)): 298 nM
IC50 (cancer cell lines; Homo sapiens, SK-MEL-5, 72 h, SKMEL5 (skin; SKMELS [sic] in Table 9E)): > 50000 nM
IC50 (cancer cell lines; Homo sapiens, SK-MEL-28, 72 h, SKMEL28 (skin)): > 50000 nM
IC50 (cancer cell lines; Homo sapiens, SK-N-AS, SKNAS (brain)): > 50000 nM
IC50 (cancer cell lines; Homo sapiens, SK-N-SH, SKNSH (brain)): > 50000 nM
IC50 (cancer cell lines; Homo sapiens, SK-OV-3, 72 h, SKOV3 (ovary)): 71 nM
IC50 (cancer cell lines; Homo sapiens, SNB-75, 72 h, SNB75 (brain)): > 50000 nM
IC50 (cancer cell lines; Homo sapiens, SU-DHL10, 72 h, SU-DHL-10 (hematological)): 1160 nM
IC50 (cancer cell lines; Homo sapiens, SU-DHL-6, 72 h, SU-DHL-6 (hematological)): 143 nM
IC50 (cancer cell lines; Homo sapiens, SW-620, 72 h, SW620 (colon)): 82 nM
IC50 (cancer cell lines; Homo sapiens, TE-671, 72 h, TE671 (muscle)): 82 nM
IC50 (cancer cell lines; Homo sapiens, THP-1, 72 h, THP-1 (hematological)): 131 nM
IC50 (cancer cell lines; Homo sapiens, U2OS, U20S (bone; U2OS in Table 9E)): > 50000 nM
IC50 (cancer cell lines; Homo sapiens, U-87 MG, U87MG (brain)): > 50000 nM
IC50 (cancer cell lines; Homo sapiens, UMUC3, 72 h, UMUC3 (bladder)): 228 nM
IC50 (cancer cell lines; Homo sapiens, UO-31, 72 h, UO31 (kidney)): > 50000 nM
IC50 (cancer cell lines; Homo sapiens, WSU-NHL, WSU-NHL (hematological)): 448 nM
IC50 (cancer cell lines; NCI-H358M, NCIH358M (lung)): 19 nM
IC50 (cancer cell lines; PBMC, PBMC (hematological)): 3020 nM
IC50 (cancer cell lines; RD-ES, RDES (bone)): 10400 nM
cytotoxicity against a panel of cell lines (waterfall plot) (cancer cell lines; panel of cancer and non-cancer cell lines, figure legends FIG. 1-3): selectively cytotoxic in cancer cell lines with high DDR activity
metabolism (deamination) by human CDA (line graph) ([1]; 12 nM CDA, 50 and 200 uM substrate, 37° C., pH 7.5, figure legends FIG. 4-9): not metabolized
substrate conversion by CDA (Inactive) ([1]; rate of substrate conversion at 200 μM, could not be fitted): Inactive
